Experimental data reported in patent US11512079B2, “Heterocycle substituted pyridine derivative antifungal agents” (Amplyx Pharmaceuticals, Inc., priority 2017, dated 2022).
≈ marks a conversion by molar mass, not a printed value. Counter-ions that a name gives are not always drawn.

What was measured:
Assay type in all cases: cell-based
[1] = system: Candida albicans 90028; test: In vitro antifungal assay (Example IX), microdilution broth, MIC; conditions: minimum inhibitory concentration (≥50% inhibition), 35° C., 40-48 h, RPMI1640
Method: Measurement of antifungal activity: Antifungal activity of the compounds was evaluated in a microdilution broth assay as per Clinical and Laboratory Standard Institute methodology for yeast (for Candida and Cryptococcus) (1) and molds (for Aspergillus and Rhizomucor) (2). Candida albicans 90028, Aspergillus fumigatus MYA3626, Rhizomucor pusillus 46342 and Cryptococcus neoformans H99 strains were obtained from American Type Culture Collection (ATCC).
Preparation of Fungal Suspension. C. albicans 90028 and C. neoformans H99 strains were streaked from frozen stocks at −80° C. onto Sabouraud Dextrose Agar (SDA) plates. These were allowed to grow for 24 h (C. albicans) and 48 h (C. neoformans) at 35° C. before using them in the assay. 5-6 individual colonies were picked and diluted into sterile water to obtain a fungal suspension. The cell density of the suspension was determined and the culture diluted with RPMI1640 medium to obtain a fungal suspension of 2.5×10^3 cells/mL. The suspension was used in the MIC measurement as described below.
Preparation of Compound Stocks and Intermediate Dilutions: The compounds were weighed and DMSO was added to prepare a 10 mg/mL stock. The solutions were mixed by vortexing and sonication at 37° C. for 5-10 mins. The resulting solutions were sterile filtered using a PTFE filter, and aliquoted (12 μL or as needed) and stored at −20° C. Intermediate compound dilutions were prepared in sterile polypropylene tubes in 100% DMSO. The compound stock solution was first diluted in DMSO to obtain a concentration of […] to 0.19 μg/mL.
MIC/MEC Measurement: 99 μL 1 of the fungal suspension in RPMI1640 prepared as above was added to each well of a 96-well round bottom assay plate. 1 μL of the intermediate compound dilutions (200-0.19 μg/mL) were added to wells of the plate. This led to a 100-fold dilution of the intermediate dilutions resulting in a final compound concentration of 2-0.0019 μg/mL in the plate. 1 μL of DMSO was added to “No drug” control wells. The solutions were mixed by shaking on a plate shaker for 10 mins and plates incubated at 35° C. for 40-48 h (C. albicans, A. fumigatus, R. pusillus) and 72 h (Cryptococcus). […] This was validated by thorough mixing and reading at 600 nm on a microplate reader. The minimum concentration that led to shortening of hyphae as compared to hyphal growth in DMSO control wells was determined as the minimum effective concentration (MEC) for A. fumigatus and R. pusillus (as read for echinocandins). The use of the MIC and MEC endpoints against yeasts and molds, respectively has been described by Pfaller M A, Duncanson F, Messer S A, Moet G J, Jones R N, Castanheira M. Antimicrob Agents Chemother. 2011. 55(11):5155-8. In vitro activity of a novel broad-spectrum antifungal, E1210, tested against Aspergillus spp. determined by CLSI and EUCAST broth microdilution methods. Results are shown in Table 2, and the letters indicate the following ranges in μg/mL: […]

[2] = system: Aspergillus fumigatus MYA3626; test: In vitro antifungal assay (Example IX), microdilution broth, MEC; conditions: minimum effective concentration (shortening of hyphae), 35° C., 40-48 h, RPMI1640
Method: (§1) Measurement of antifungal activity: […] Candida albicans 90028, Aspergillus fumigatus MYA3626, Rhizomucor pusillus 46342 and Cryptococcus neoformans […] strains were obtained from American Type Culture Collection (ATCC). […] (A. fumigatus) and 35° C. (R. pusillus). Water containing 1% Tween was directly added to the agar plate and gently agitated to wet and remove the Aspergillus conidia. For R. pusillus, water was added to the surface and gently massaged to wet and remove the spores. For both species, the conidia or spores and mycelial fragments were collected, followed by removal of mycelium, conidiophores and large clumps of conidia/spores. The resulting spore suspension was counted and diluted into RPMI1640 medium to adjust to a final suspension of 1-2×10^4 spores/mL. The suspension was used in the MEC measurement as described below. […] The compounds were weighed and DMSO was added to prepare a 10 mg/mL stock. The solutions were mixed by vortexing and sonication at 37° C. for 5-10 mins. The resulting solutions were sterile filtered using a PTFE filter, and aliquoted (12 μL or as needed) and stored at -20° C. Intermediate compound dilutions were prepared in sterile polypropylene tubes in 100% DMSO. […] This was validated by thorough mixing and reading at 600 nm on a microplate reader. The minimum concentration that led to shortening of hyphae as compared to hyphal growth in DMSO control wells was determined as the minimum effective concentration (MEC) for A. fumigatus and R. pusillus (as read for echinocandins). The use of the MIC and MEC endpoints against yeasts and molds, respectively has been described by Pfaller M A, Duncanson F, Messer S A, Moet G J, Jones […]. Antimicrob Agents Chemother. 2011. 55(11):5155-8. In vitro activity of a novel broad-spectrum antifungal, […], tested against Aspergillus spp. determined by CLSI and EUCAST broth microdilution methods. Results are shown in Table 2, and the letters indicate the following ranges in μg/mL: […]

[3] = system: Rhizomucor pusillus 46342; test: as above; conditions: minimum effective concentration (shortening of hyphae), 35° C., 40-48 h, RPMI1640
Method: as §1

## Cc1cnc(COc2ccc(Cc3cc(-c4cccnc4N)on3)cc2)nc1 [compound 29, 3-(3-(4-((5-methylpyrimidin-2-yl)methoxy)benzyl)isoxazol-5-yl)pyridin-2-amine]
[1]
  MIC: 0.1 to 1 µg/mL (≈ 0.268 to 2.68 µM)
[2]
  minimal effective concentration: 0.1 to 1 µg/mL
[3]
  minimal effective concentration: > 1 µg/mL

## Nc1ncccc1-c1cc(Cc2ccc(OCC(c3ccccc3)c3ccccc3)nc2)no1 [compound 215, 3-(3-((6-(2,2-diphenylethoxy)pyridin-3-yl)methyl)isoxazol-5-yl)pyridin-2-amine]
[1]
  MIC: > 1 µg/mL
[2]
  minimal effective concentration: > 1 µg/mL
[3]
  minimal effective concentration: > 1 µg/mL

## Nc1ncccc1-c1cc(Cc2ccc(Cc3ccc4ncnn4c3)cc2)no1 [compound 13, 3-(3-(4-([1,2,4]triazolo[1,5-a]pyridin-6-ylmethyl)benzyl)isoxazol-5-yl)pyridin-2-amine]
[1]
  MIC: 0.1 to 1 µg/mL (≈ 0.261 to 2.61 µM)
[2]
  minimal effective concentration: 0.1 to 1 µg/mL
[3]
  minimal effective concentration: > 1 µg/mL

## Nc1ncccc1-c1cc(Cc2ccc(NCc3ccc(F)cc3)nc2)no1 [Example 153, 5-((5-(2-aminopyridin-3-yl)isoxazol-3-yl)methyl)-N-(4-fluorobenzyl)pyridin-2-amine]
[1]
  MIC: 0.1 to 1 µg/mL (≈ 0.266 to 2.66 µM)
[2]
  minimal effective concentration: 0.01 to 0.1 µg/mL
[3]
  minimal effective concentration: > 1 µg/mL

## Nc1ncccc1-c1cc(Cc2ccc(F)nc2)no1 [E, 3-(3-((6-fluoropyridin-3-yl)methyl)isoxazol-5-yl)pyridin-2-amine]
[1]
  MIC: > 1 µg/mL
[2]
  minimal effective concentration: > 1 µg/mL
[3]
  minimal effective concentration: > 1 µg/mL

## Nc1ccc(-c2cc(Cc3ccc(OCc4nccs4)cc3)no2)c(N)n1 [compound 133, 3-(3-(4-(thiazol-2-ylmethoxy)benzyl)isoxazol-5-yl)pyridine-2,6-diamine]
[1]
  MIC: 0.1 to 1 µg/mL (≈ 0.264 to 2.64 µM)
[2]
  minimal effective concentration: 0.1 to 1 µg/mL
[3]
  minimal effective concentration: 0.1 to 1 µg/mL

## Nc1ncccc1-c1cc(Cc2cccc(OCc3cccc(F)c3)n2)no1 [compound 89, 3-(3-((6-((3-fluorobenzyl)oxy)pyridin-2-yl)methyl)isoxazol-5-yl)pyridin-2-amine]
[1]
  MIC: > 1 µg/mL
[2]
  minimal effective concentration: > 1 µg/mL
[3]
  minimal effective concentration: > 1 µg/mL

## Nc1ncccc1-c1cc(Cc2ccc(CNc3cnc4[nH]ccc4c3)cc2)no1 [compound 7, N-(4-((5-(2-aminopyridin-3-yl)isoxazol-3-yl)methyl)benzyl)-1H-pyrrolo[2,3-b]pyridin-5-amine]
[1]
  MIC: 0.1 to 1 µg/mL (≈ 0.252 to 2.52 µM)
[2]
  minimal effective concentration: 0.1 to 1 µg/mL
[3]
  minimal effective concentration: > 1 µg/mL

## Nc1ncccc1-c1cc(Cc2ccc(Cc3cccc(C(F)(F)F)n3)cc2)no1 [Example 151, 3-(3-(4-((6-(trifluoromethyl)pyridin-2-yl)methyl)benzyl)isoxazol-5-yl)pyridin-2-amine]
[1]
  MIC: 0.1 to 1 µg/mL (≈ 0.244 to 2.44 µM)
[2]
  minimal effective concentration: 0.1 to 1 µg/mL
[3]
  minimal effective concentration: 0.1 to 1 µg/mL

## Nc1ncccc1-c1cc(Cc2ccc(Cn3cc(CO)cn3)cc2)no1 [compound 102, (1-(4-((5-(2-aminopyridin-3-yl)isoxazol-3-yl)methyl)benzyl)-1H-pyrazol-4-yl)methanol]
[1]
  MIC: > 1 µg/mL
[2]
  minimal effective concentration: > 1 µg/mL
[3]
  minimal effective concentration: > 1 µg/mL

## Cc1occc1COc1ccc(Cc2cc(-c3cccnc3N)on2)cn1 [compound 52, 3-(3-((6-((2-methylfuran-3-yl)methoxy)pyridin-3-yl)methyl)isoxazol-5-yl)pyridin-2-amine]
[1]
  MIC: 0.1 to 1 µg/mL (≈ 0.276 to 2.76 µM)
[2]
  minimal effective concentration: 0.1 to 1 µg/mL
[3]
  minimal effective concentration: > 1 µg/mL

## Nc1ncccc1-c1cc(Cc2ccc(Cn3ccccc3=O)cc2)no1 [compound 126, 1-(4-((5-(2-aminopyridin-3-yl)isoxazol-3-yl)methyl)benzyl)pyridin-2(1H)-one]
[1]
  MIC: > 1 µg/mL
[2]
  minimal effective concentration: > 1 µg/mL
[3]
  minimal effective concentration: > 1 µg/mL

## Nc1ncccc1-c1cc(Cc2ccc(OCc3ncccc3F)nc2)no1 [Example 162, 3-(3-((6-((3-fluoropyridin-2-yl)methoxy)pyridin-3-yl)methyl)isoxazol-5-yl)pyridin-2-amine]
[1]
  MIC: 0.01 to 0.1 µg/mL (≈ 0.0265 to 0.265 µM)
[2]
  minimal effective concentration: 0.1 to 1 µg/mL
[3]
  minimal effective concentration: > 1 µg/mL

## Nc1ncccc1-c1cc(Cc2ccc(CNc3cc(F)cc(F)c3)cc2)no1 [Example 167, 3-(3-(4-(((3,5-difluorophenyl)amino)methyl)benzyl)isoxazol-5-yl)pyridin-2-amine]
[1]
  MIC: 0.1 to 1 µg/mL (≈ 0.255 to 2.55 µM)
[2]
  minimal effective concentration: 0.01 to 0.1 µg/mL
[3]
  minimal effective concentration: 0.1 to 1 µg/mL

## Cc1nccc(NCc2ccc(Cc3cc(-c4cccnc4N)on3)cc2)n1 [compound 33, N-(4-((5-(2-aminopyridin-3-yl)isoxazol-3-yl)methyl)benzyl)-2-methylpyrimidin-4-amine]
[1]
  MIC: > 1 µg/mL
[2]
  minimal effective concentration: > 1 µg/mL
[3]
  minimal effective concentration: > 1 µg/mL

## Nc1ncccc1-c1cc(Cc2ccc(OCc3cccc(Cl)c3)nc2)no1 [compound 85, 3-(3-((6-((3-chlorobenzyl)oxy)pyridin-3-yl)methyl)isoxazol-5-yl)pyridin-2-amine]
[1]
  MIC: 0.01 to 0.1 µg/mL (≈ 0.0255 to 0.255 µM)
[2]
  minimal effective concentration: 0.01 to 0.1 µg/mL
[3]
  minimal effective concentration: 0.1 to 1 µg/mL

## N#CCNCc1ccc(Cc2cc(-c3cccnc3N)on2)cc1 [compound 94, 2-((4-((5-(2-aminopyridin-3-yl)isoxazol-3-yl)methyl)benzyl)amino)acetonitrile]
[1]
  MIC: > 1 µg/mL
[2]
  minimal effective concentration: > 1 µg/mL
[3]
  minimal effective concentration: > 1 µg/mL

## Nc1ncccc1-c1cc(Cc2ccc(CCSCCOC=O)cc2)no1 [compound 98, 2-((4-((5-(2-aminopyridin-3-yl)isoxazol-3-yl)methyl)phenethyl)thio)ethyl formate]
[1]
  MIC: 0.1 to 1 µg/mL
[2]
  minimal effective concentration: 0.1 to 1 µg/mL
[3]
  minimal effective concentration: > 1 µg/mL

## Nc1ncccc1-c1cc(Cc2cccc(OCCc3cccc(F)c3)n2)no1 [Example 147, 3-(3-((6-(3-fluorophenethoxy)pyridin-2-yl)methyl)isoxazol-5-yl)pyridin-2-amine]
[1]
  MIC: > 1 µg/mL
[2]
  minimal effective concentration: > 1 µg/mL
[3]
  minimal effective concentration: > 1 µg/mL

## Nc1ncccc1-c1cc(Cc2ccc(Cn3ncc4ccccc43)cc2)no1 [Example 170, 3-(3-(4-((1H-indazol-1-yl)methyl)benzyl)isoxazol-5-yl)pyridin-2-amine]
[1]
  MIC: 0.1 to 1 µg/mL (≈ 0.262 to 2.62 µM)
[2]
  minimal effective concentration: 0.1 to 1 µg/mL
[3]
  minimal effective concentration: 0.1 to 1 µg/mL

## Nc1ncccc1-c1cc(Cc2ccc(O)cc2)no1 [C, 4-((5-(2-aminopyridin-3-yl)isoxazol-3-yl)methyl)phenol]
[1]
  MIC: > 1 µg/mL
[2]
  minimal effective concentration: 0.1 to 1 µg/mL
[3]
  minimal effective concentration: > 1 µg/mL

## Nc1ncccc1-c1cc(Cc2ccc(CNCC3CCOCC3)cc2)no1 [compound 95, 3-(3-(4-((((tetrahydro-2H-pyran-4-yl)methyl)amino)methyl)benzyl)isoxazol-5-yl)pyridin-2-amine]
[1]
  MIC: > 1 µg/mL
[2]
  minimal effective concentration: > 1 µg/mL
[3]
  minimal effective concentration: > 1 µg/mL
